Results taken from patent publication US7851474B2, “Dipiperazinyl ketones and related analogues” (Neurogen Corporation, priority 2005, dated 2010).

target: T1, chimeric human H3 receptor (Homo sapiens, UniProt Q9Y5N1, E19D); assay: Chimeric human H3 receptor GTP binding assay (agonist-stimulated GTP-gamma35S binding, Example 7); assay type: biochemical; settings: Table II, "*" in Ki; assay of Example 7; read-out: Ki
T1 construct: made in house; host or cells: Sf9 insect cells (baculovirus infection); P2 membrane preparation
T1 sequence (Q9Y5N1 with tags, fused parts or gaps E19D): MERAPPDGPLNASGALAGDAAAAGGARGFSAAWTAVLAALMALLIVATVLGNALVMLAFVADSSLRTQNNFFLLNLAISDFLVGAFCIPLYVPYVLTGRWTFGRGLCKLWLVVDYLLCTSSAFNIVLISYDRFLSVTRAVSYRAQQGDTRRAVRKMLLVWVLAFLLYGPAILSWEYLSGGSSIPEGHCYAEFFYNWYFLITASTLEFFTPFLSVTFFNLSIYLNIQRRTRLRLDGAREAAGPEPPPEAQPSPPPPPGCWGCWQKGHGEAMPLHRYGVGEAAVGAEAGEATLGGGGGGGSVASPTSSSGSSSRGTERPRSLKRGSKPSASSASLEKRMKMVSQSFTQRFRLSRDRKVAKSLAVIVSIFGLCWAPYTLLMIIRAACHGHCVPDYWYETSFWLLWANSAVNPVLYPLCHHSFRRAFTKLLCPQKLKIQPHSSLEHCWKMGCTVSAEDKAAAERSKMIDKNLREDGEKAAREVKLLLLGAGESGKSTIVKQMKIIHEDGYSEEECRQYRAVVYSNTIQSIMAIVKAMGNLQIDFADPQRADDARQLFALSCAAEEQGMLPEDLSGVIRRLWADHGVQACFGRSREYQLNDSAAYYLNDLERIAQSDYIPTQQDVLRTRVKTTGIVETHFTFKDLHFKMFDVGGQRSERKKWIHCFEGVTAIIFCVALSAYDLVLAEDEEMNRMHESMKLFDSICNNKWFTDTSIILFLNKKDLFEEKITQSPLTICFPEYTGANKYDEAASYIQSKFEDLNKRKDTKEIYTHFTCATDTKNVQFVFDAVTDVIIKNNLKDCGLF
Procedure, shortened: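 Sf9 membranes co-expressing the chimeric receptor and heterotrimeric G-protein subunits, 35 μg protein per tube, in pH 7.4 Tris buffer with 10 μM GDP. Test compounds at 10^−10 to 10^−6 M with 1 μM histamine, 60 min at room temperature. Filter-bound GTP-gamma^35S read by scintillation; IC50 from non-linear regression of dose-response curves.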

Structure (SMILES) | Ki
O=C(CN1CCN(c2ccc(-c3ccc(F)cc3F)cc2)CC1)N1CCN(C2CCC2)CC1 [Compound 676, 1-cyclobutyl-4-{[4-(2′,4′-difluorobiphenyl-4-yl)piperazin-1-yl]acetyl}piperazine] | < 1 µM
COc1ccc(-c2ccc(N3CCN(CC(=O)N4CCN(C5CCC5)CC4)CC3)cc2)c(OC)c1 [Compound 678, 1-cyclobutyl-4-{[4-(2′,4′-dimethoxybiphenyl-4-yl)piperazin-1-yl]acetyl}piperazine] | < 1 µM
O=C(CN1CCN(c2ccc(-c3cc(Cl)ccc3Cl)cc2)CC1)N1CCN(C2CCC2)CC1 [Compound 682, 1-cyclobutyl-4-{[4-(2′,5′-dichlorobiphenyl-4-yl)piperazin-1-yl]acetyl}piperazine] | < 1 µM
COc1cc(F)c(-c2ccc(N3CCN(CC(=O)N4CCN(C5CCC5)CC4)CC3)cc2)cc1F [Compound 683, 1-cyclobutyl-4-{[4-(2′,5′-difluoro-4′-methoxybiphenyl-4-yl)piperazin-1-yl]acetyl}piperazine] | < 1 µM
COc1ccc(OC)c(-c2ccc(N3CCN(CC(=O)N4CCN(C5CCC5)CC4)CC3)cc2)c1 [Compound 687, 1-cyclobutyl-4-{[4-(2′,5′-dimethoxybiphenyl-4-yl)piperazin-1-yl]acetyl}piperazine] | < 1 µM
COc1cccc(OC)c1-c1ccc(N2CCN(CC(=O)N3CCN(C4CCC4)CC3)CC2)cc1 [Compound 695, 1-cyclobutyl-4-{[4-(2′,6′-dimethoxybiphenyl-4-yl)piperazin-1-yl]acetyl}piperazine] | < 1 µM
Cc1cccc(C)c1-c1ccc(N2CCN(CC(=O)N3CCN(C4CCC4)CC3)CC2)cc1 [Compound 697, 1-cyclobutyl-4-{[4-(2′,6′-dimethylbiphenyl-4-yl)piperazin-1-yl]acetyl}piperazine] | < 1 µM
Cc1ccc(-c2ccc(N3CCN(CC(=O)N4CCN(C5CCC5)CC4)CC3)cc2)c(F)c1 [Compound 704, 1-cyclobutyl-4-{[4-(2′-fluoro-4′-methylbiphenyl-4-yl)piperazin-1-yl]acetyl}piperazine] | < 1 µM
Cc1ccc(F)c(-c2ccc(N3CCN(CC(=O)N4CCN(C5CCC5)CC4)CC3)cc2)c1 [Compound 705, 1-cyclobutyl-4-{[4-(2′-fluoro-5′-methylbiphenyl-4-yl)piperazin-1-yl]acetyl}piperazine] | < 1 µM
O=C(CN1CCN(c2ccccc2F)CC1)N1CCN(C2CCC2)CC1 [Compound 708, 1-cyclobutyl-4-{[4-(2-fluorophenyl)piperazin-1-yl]acetyl}piperazine] | < 1 µM
O=C(CN1CCN(c2ccc(-c3ccc(Cl)c(Cl)c3)cc2)CC1)N1CCN(C2CCC2)CC1 [Compound 727, 1-cyclobutyl-4-{[4-(3′,4′-dichlorobiphenyl-4-yl)piperazin-1-yl]acetyl}piperazine] | < 1 µM
Cc1ccc(N2CCN(CC(=O)N3CCN(C4CCC4)CC3)CC2)cc1C [Compound 736, 1-cyclobutyl-4-{[4-(3,4-dimethylphenyl)piperazin-1-yl]acetyl}piperazine] | < 1 µM
CCOc1cccc(-c2ccc(N3CCN(CC(=O)N4CCN(C5CCC5)CC4)CC3)cc2)c1 [Compound 746, 1-cyclobutyl-4-{[4-(3′-ethoxybiphenyl-4-yl)piperazin-1-yl]acetyl}piperazine] | < 1 µM
CCc1cccc(-c2ccc(N3CCN(CC(=O)N4CCN(C5CCC5)CC4)CC3)cc2)c1 [Compound 747, 1-cyclobutyl-4-{[4-(3′-ethylbiphenyl-4-yl)piperazin-1-yl]acetyl}piperazine] | < 1 µM
COc1ccc(-c2ccc(N3CCN(CC(=O)N4CCN(C5CCC5)CC4)CC3)cc2)cc1F [Compound 750, 1-cyclobutyl-4-{[4-(3′-fluoro-4′-methoxybiphenyl-4-yl)piperazin-1-yl]acetyl}piperazine] | < 1 µM
Cc1ccc(-c2ccc(N3CCN(CC(=O)N4CCN(C5CCC5)CC4)CC3)cc2)cc1F [Compound 751, 1-cyclobutyl-4-{[4-(3′-fluoro-4′-methylbiphenyl-4-yl)piperazin-1-yl]acetyl}piperazine] | < 1 µM
O=C(CN1CCN(c2cccc(F)c2)CC1)N1CCN(C2CCC2)CC1 [Compound 754, 1-cyclobutyl-4-{[4-(3-fluorophenyl)piperazin-1-yl]acetyl}piperazine] | < 1 µM
CC(C)Oc1cccc(-c2ccc(N3CCN(CC(=O)N4CCN(C5CCC5)CC4)CC3)cc2)c1 [Compound 755, 1-cyclobutyl-4-{[4-(3′-isopropoxybiphenyl-4-yl)piperazin-1-yl]acetyl}piperazine] | < 1 µM

More lines, now with the values ahead:

Ki | Structure (SMILES)
< 1 µM | O=C(CN1CCN(c2ccc(-c3cc(F)ccc3F)cc2)CC1)N1CCN(C2CCC2)CC1 [Compound 685, 1-cyclobutyl-4-{[4-(2′,5′-difluorobiphenyl-4-yl)piperazin-1-yl]acetyl}piperazine]
< 1 µM | Cc1cccc(C)c1N1CCN(CC(=O)N2CCN(C3CCC3)CC2)CC1 [Compound 698, 1-cyclobutyl-4-{[4-(2,6-dimethylphenyl)piperazin-1-yl]acetyl}piperazine]
< 1 µM | CCOc1ccccc1-c1ccc(N2CCN(CC(=O)N3CCN(C4CCC4)CC3)CC2)cc1 [Compound 700, 1-cyclobutyl-4-{[4-(2′-ethoxybiphenyl-4-yl)piperazin-1-yl]acetyl}piperazine]
< 1 µM | O=C(CN1CCN(c2ccc(-c3ccccc3F)cc2)CC1)N1CCN(C2CCC2)CC1 [Compound 707, 1-cyclobutyl-4-{[4-(2′-fluorobiphenyl-4-yl)piperazin-1-yl]acetyl}piperazine]
< 1 µM | CC(C)c1ccccc1-c1ccc(N2CCN(CC(=O)N3CCN(C4CCC4)CC3)CC2)cc1 [Compound 709, 1-cyclobutyl-4-{[4-(2′-isopropylbiphenyl-4-yl)piperazin-1-yl]acetyl}piperazine]
< 1 µM | COc1ccc(C)cc1-c1ccc(N2CCN(CC(=O)N3CCN(C4CCC4)CC3)CC2)cc1 [Compound 710, 1-cyclobutyl-4-{[4-(2′-methoxy-5′-methylbiphenyl-4-yl)piperazin-1-yl]acetyl}piperazine]
< 1 µM | COc1ccccc1-c1ccc(N2CCN(CC(=O)N3CCN(C4CCC4)CC3)CC2)cc1 [Compound 712, 1-cyclobutyl-4-{[4-(2′-methoxybiphenyl-4-yl)piperazin-1-yl]acetyl}piperazine]
< 1 µM | O=C(CN1CCN(c2ccc(-c3ccccc3Oc3ccccc3)cc2)CC1)N1CCN(C2CCC2)CC1 [Compound 719, 1-cyclobutyl-4-{[4-(2′-phenoxybiphenyl-4-yl)piperazin-1-yl]acetyl}piperazine]
< 1 µM | CC(Oc1ccccc1)C(=O)N1CCN(CC(=O)N2CCN(C3CCC3)CC2)CC1 (stereo not drawn) [Compound 720, 1-cyclobutyl-4-{[4-(2-phenoxypropanoyl)piperazin-1-yl]acetyl}piperazine]
< 1 µM | COc1cc(-c2ccc(N3CCN(CC(=O)N4CCN(C5CCC5)CC4)CC3)cc2)cc(OC)c1OC [Compound 725, 1-cyclobutyl-4-{[4-(3′,4′,5′-trimethoxybiphenyl-4-yl)piperazin-1-yl]acetyl}piperazine]
< 1 µM | O=C(CN1CCN(c2ccc(-c3ccc(F)c(F)c3)cc2)CC1)N1CCN(C2CCC2)CC1 [Compound 730, 1-cyclobutyl-4-{[4-(3′,4′-difluorobiphenyl-4-yl)piperazin-1-yl]acetyl}piperazine]
< 1 µM | COc1ccc(-c2ccc(N3CCN(CC(=O)N4CCN(C5CCC5)CC4)CC3)cc2)cc1OC [Compound 732, 1-cyclobutyl-4-{[4-(3′,4′-dimethoxybiphenyl-4-yl)piperazin-1-yl]acetyl}piperazine]
< 1 µM | COc1ccc(N2CCN(CC(=O)N3CCN(C4CCC4)CC3)CC2)cc1OC [Compound 733, 1-cyclobutyl-4-{[4-(3,4-dimethoxyphenyl)piperazin-1-yl]acetyl}piperazine]
< 1 µM | Cc1ccc(-c2ccc(N3CCN(CC(=O)N4CCN(C5CCC5)CC4)CC3)cc2)cc1C [Compound 735, 1-cyclobutyl-4-{[4-(3′,4′-dimethylbiphenyl-4-yl)piperazin-1-yl]acetyl}piperazine]
< 1 µM | O=C(CN1CCN(c2ccc(-c3cc(Cl)cc(Cl)c3)cc2)CC1)N1CCN(C2CCC2)CC1 [Compound 739, 1-cyclobutyl-4-{[4-(3′,5′-dichlorobiphenyl-4-yl)piperazin-1-yl]acetyl}piperazine]
< 1 µM | O=C(CN1CCN(c2ccc(-c3cc(F)cc(F)c3)cc2)CC1)N1CCN(C2CCC2)CC1 [Compound 740, 1-cyclobutyl-4-{[4-(3′,5′-difluorobiphenyl-4-yl)piperazin-1-yl]acetyl}piperazine]
< 1 µM | Cc1cc(C)cc(-c2ccc(N3CCN(CC(=O)N4CCN(C5CCC5)CC4)CC3)cc2)c1 [Compound 743, 1-cyclobutyl-4-{[4-(3′,5′-dimethylbiphenyl-4-yl)piperazin-1-yl]acetyl}piperazine]
< 1 µM | COC[C@H]1CCCN1C(=O)c1cccc(N2CCN(CC(=O)N3CCN(C4CCC4)CC3)CC2)c1 [Compound 744, 1-cyclobutyl-4-{[4-(3-{[(2R)-2-(methoxymethyl)pyrrolidin-1-yl]car-bonyl}phenyl)piperazin-1-yl]acetyl}piperazine]
< 1 µM | COC[C@@H]1CCCN1C(=O)c1cccc(N2CCN(CC(=O)N3CCN(C4CCC4)CC3)CC2)c1 [Compound 745, 1-cyclobutyl-4-{[4-(3-{[(2S)-2-(methoxymethyl)pyrrolidin-1-yl]car-bonyl}phenyl)piperazin-1-yl]acetyl}piperazine]
< 1 µM | COc1ccc(-c2cccc(N3CCN(CC(=O)N4CCN(C5CCC5)CC4)CC3)c2)cc1F [Compound 749, 1-cyclobutyl-4-{[4-(3′-fluoro-4′-methoxybiphenyl-3-yl)piperazin-1-yl]acetyl}piperazine]
< 1 µM | O=C(CN1CCN(c2ccc(-c3cccc(F)c3)cc2)CC1)N1CCN(C2CCC2)CC1 [Compound 753, 1-cyclobutyl-4-{[4-(3′-fluorobiphenyl-4-yl)piperazin-1-yl]acetyl}piperazine]
